Data set [1] deals with T1, human NLRP3 (Homo sapiens, UniProt Q96P20).
T1 construct: Human whole blood is drawn from healthy volunteers after obtaining written informed consent; from tissue
In words: Human Whole Blood (hWB) NLRP3 Assay. Conditions: LPS priming, ATP activation, IL-1β levels. The data set is classed as cell-based. On the procedure:
(ii) Human Whole Blood (hWB) NLRP3 Assay
Human whole blood is drawn from healthy volunteers after obtaining written informed consent. Heparin lithium coated tubes are used to collect blood from volunteers. Blood samples are distributed on 96 well plates using 90 μl per well. Priming is performed by adding 5 μl of LPS (026: B6; Sigma L-2654) at a final concentration of 1 μg/ml for 4.5 hours in a humidified incubator with 37° C. 5% CO2. Thirty minutes prior to NLRP3 activation, 5 μl of a 20× compound solution or vehicle (2% dimethylsulfoxide (DMSO)) is added to each well and plates were incubated on a shaker (450 rpm) in a humidified incubator with 37° C., 5% CO2. Activation is then performed by adding 3.3 μl of a 31× ATP solution per well. At the end of the 30 minutes stimulation, the plates are centrifuged (800 g, 10 min, room temperature) and the plasma from each well is frozen at −80° C. IL-1β levels in the supernatant were analyzed using a mesoscale discovery assay (MSD K151TUK) according to the manufacturers’ instructions.

Data set [2] can be described thus: Mouse Hepatocyte Stability Assay. Type of data set: in vitro ADME. Conditions: mouse hepatocytes, 37° C.; read-out: Hep (mouse) (t½ min). On the procedure:
(§1) (v) Mouse and Human Hepatocyte Stability Assays
(§2) A hepatocyte stability assay is a laboratory-based method used to determine the metabolic stability of a compound in hepatocytes (liver cells). This assay provides valuable information about how quickly a drug is metabolized in the liver and can be used to assess its potential effectiveness and safety in drug discovery.
(§3) In the assay, cither human or mouse hepatocytes are incubated with the test compound at a controlled temperature of 37° C., for different time periods (e.g., 5, 15, 30, 60, and 120 minutes). At each time point during the incubation, samples are taken, the reaction is terminated, and the amount of test compound remaining analyzed using LC-MS/MS to monitor the disappearance of the test compound over time (Gradient). […] See, e.g., Coe et al., Methods in Pharmacology & Toxicology (2008) 151.

A short description of data set [3]: Brain Levels (Kp and Kpu,u). The data set is classed as in vivo, CDI mice. Conditions: for Kp at 24 h: mice dosed at 20 mpk PO, whole brain AUC over 24 h divided by plasma AUC; for Kp: oral, 20 mpk. As for the experimental part:
(iv) Brain Levels (Kp and Kpu,u)—NLRP3
The in vivo total brain to plasma ratio was assessed in CDI mice after oral administration of the compound. Blood was collected at several timepoints up to 24 h, and transferred into plastic micro centrifuge tubes with EDTA-K2 as anticoagulant. Blood samples were centrifuged at 4000 g for 5 minutes at 4° C., to obtain plasma, then immediately frozen and stored at −75±15° C., prior to analysis. Animals were terminally anaesthetized with a rising concentration of CO2 gas at about 1 minute. At selected timepoints, whole brains were removed from the skull, rinsed in cold PBS to remove blood, dried with clean gauze, then frozen in liquid nitrogen and kept at −75±15° C. before analysis. At the time of analysis, brain samples were homogenized with PBS by tissue weight (g) to PBS volume (mL) ratio 1:3.
Plasma and brain drug levels were quantified by LC/MS/MS on an AB Sciex Triple Quad 5500+instrument, after separation on a HALO 160 A ES-C18, 2.7 μm 2.1×50 mm column. Quantitation was performed using a calibration curve prepared in blank plasma or blank brain homogenate. The software WinNonlin (Phoenix™) was used for pharmacokinetic analysis from the concentrations versus time data, including the AUCinf and AUClast. The Kp ratio (total brain concentration over total plasma concentration) was calculated as (AUCtot,br)/(AUCtot,pl).
The unbound brain exposure was assessed as Kpuu, which is the free brain/free plasma concentration ratio (Cu,bt/Cu,pl). The Cu,br/Cu,pl ratios were obtained from in vivo total brain to plasma ratios (Ctot,br/Ctot,pl) by using in vitro determined Fu,br and Fu,pl.
Plasma protein binding and brain homogenate protein binding were measured by equilibrium dialysis in a HTDialysis plate. The dialysis membranes were soaked in ultrapure water for 60 minutes to separate strips, then in 20% ethanol for 20 minutes, finally in dialysis buffer for 20 minutes. The dialysis set up was assembled according to the manufacturer's instruction. Each cell received 150 μL of plasma or brain homogenate spiked with 1 mM of compound, and dialyzed against an equal volume of dialysis buffer (PBS). The dialysis plate was sealed and incubated in an incubator at 37° C. with 5% CO2 at 100 rpm for 6 hours. At the end of incubation, compound concentration was measured in both chambers by LC-MS/MS on a Triple Quad™ 5500 from AB Inc after separation on a XSelect Hss T3.2.5μ (2.1×30 mm) column. Free fraction (Fu) was calculated as (Peak Area Ratio buffer chamber/Peak Area Ratio plasma chamber). Kpuu=(AUCtot,br×Fu,br)/([…])
The Kpu,u was then calculated upon correcting this kp value with mouse plasma protein binding and mouse brain homogenates binding.
A Kpu,u value >0.3 is considered brain penetrant, and a Kpu,u value ≤0.3 is not considered brain penetrant. When the Kpu,u value is not determined, the Kp value may be useful as a metric of potential brain penetrance if the Kp value is >0.3.

Data set [4] is described as follows: Human Hepatocyte Stability Assay. Type of data set: in vitro ADME. Conditions: human hepatocytes, 37° C.; read-out: Hep (human) (t½ min). On the procedure:
as §1, §2, §3

Data set [5] can be described thus: Solubility Protocol in Phosphate Buffered Saline (PBS). Conditions: for solubility at 2 h: pH 7.4, aqueous buffer. The data set is classed as physicochemical. As for the experimental part:
(vi) Solubility Protocol in Phosphate Buffered Saline (PBS)
The kinetic solubility of test compounds and control compounds was measured in commercial phosphate buffered saline (PBS), pH 7.4 (Wisent, Canada).
Briefly, a stock solution (20 mM DMSO for controls, and 10 mM DMSO for test compounds) was combined with PBS buffer to reach a targeted concentration of 400 μM for controls and 200 μM for test compounds. The spiked-PBS mixtures were then agitated on a VX-2500 multi-tube vortexer (VWR) for 2 hours at room temperature (18° C.). Following agitation, the samples were filtered on a glass fiber filter (1 μm) and the eluates were diluted 400-fold with a mixture of acetonitrile:water (1:1). Solubility determination was then performed against one standard sample prepared in high organic content at the expected top concentration. The lower limit of quantification was arbitrarily set at 1 μM (400-fold dilution of the top concentration) for assay controls, and 0.5 μM for test compounds. On each experimental run, nicardipine and imipramine were assessed as reference compounds for low and high solubility, respectively. All samples were assessed in triplicate and analyzed by LC-MS/MS (using a CTC PAL autosampler, Thermo Accela UPLC, and a Thermo Quantum mass spectrometer) using electrospray ionization against standards prepared in the same matrix

[6] abbreviates: CDI, mouse, brain (whole brain homogenate) relative to plasma, po, 20 mg/kg.
The mark [7] stands for this setting: CDI, mouse, brain (whole brain homogenate) relative to plasma, brain levels, mice.
Setting [8] is: phosphate buffered saline (PBS), 18 °C, kinetic from dmso stock.

Converted amounts (≈) assume the structure as drawn. Where two headings read alike, the source gives them in different places.

T1 sequence (Q96P20 whole entry): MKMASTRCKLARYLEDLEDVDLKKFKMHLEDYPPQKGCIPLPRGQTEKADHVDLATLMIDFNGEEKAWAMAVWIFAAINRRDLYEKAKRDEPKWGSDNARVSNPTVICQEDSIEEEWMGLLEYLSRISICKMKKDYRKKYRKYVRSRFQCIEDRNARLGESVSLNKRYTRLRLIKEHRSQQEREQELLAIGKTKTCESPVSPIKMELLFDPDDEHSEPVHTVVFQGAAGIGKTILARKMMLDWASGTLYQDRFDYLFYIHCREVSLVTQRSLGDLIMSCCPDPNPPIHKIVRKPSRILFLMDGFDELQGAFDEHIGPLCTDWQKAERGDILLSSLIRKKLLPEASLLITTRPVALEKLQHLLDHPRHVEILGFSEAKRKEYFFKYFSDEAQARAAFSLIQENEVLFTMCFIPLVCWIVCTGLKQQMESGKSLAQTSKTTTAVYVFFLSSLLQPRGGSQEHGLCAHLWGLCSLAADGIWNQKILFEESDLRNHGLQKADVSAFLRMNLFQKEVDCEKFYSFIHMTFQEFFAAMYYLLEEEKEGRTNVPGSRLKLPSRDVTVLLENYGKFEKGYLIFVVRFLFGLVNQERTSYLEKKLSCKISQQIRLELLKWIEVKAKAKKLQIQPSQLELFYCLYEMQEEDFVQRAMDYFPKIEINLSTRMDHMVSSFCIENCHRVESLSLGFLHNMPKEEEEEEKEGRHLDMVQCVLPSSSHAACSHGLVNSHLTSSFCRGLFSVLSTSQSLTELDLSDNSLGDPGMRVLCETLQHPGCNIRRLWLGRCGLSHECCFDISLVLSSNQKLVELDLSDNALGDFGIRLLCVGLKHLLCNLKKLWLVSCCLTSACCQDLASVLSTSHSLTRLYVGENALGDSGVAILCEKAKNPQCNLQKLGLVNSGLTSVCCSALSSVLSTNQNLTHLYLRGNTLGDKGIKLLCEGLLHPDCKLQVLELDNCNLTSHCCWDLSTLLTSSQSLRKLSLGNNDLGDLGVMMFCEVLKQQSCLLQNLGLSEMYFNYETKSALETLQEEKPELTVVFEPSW

Usually IC50 stands for the concentration that inhibits the measured activity by half. With “6-(1-(((1R,5S,8s)-3-oxabicyclo[3.2.1]octan-8-yl)amino)pyrido[3,4-d]pyridazin-4-yl)-2-fluoro-3-methylphenol [Compound 15A-regioisomer]”, the IC50 in data set [1] turned out to be 1.51 µM. That is a single-digit micromolar value.
Still for that read-out and setting: the figure for `Oc1cc(Cl)ccc1-c1nnc(N[C@H]2C[C@@H]3CC[C@H]2O3)c2cnccc12` (single isomer, unassigned) [Compound 3B*] is 5 µM.
As to `Oc1cc(Cl)ccc1-c1nnc(N[C@@H]2C[C@H]3CC[C@@H]2O3)c2cnccc12` (single isomer, unassigned) [Compound 3C*], half-maximal inhibition in data set [1] (IC50) was put at 0.27 µM. The half-life in data set [2] stood at 1.67 h.
Compound `Oc1cc(Cl)ccc1-c1nnc(N[C@H]2C[C@H]3CC[C@@H]2O3)c2cnccc12` (single isomer, unassigned) [Compound 3D*] gave an IC50 in data set [1] of 2.42 µM. Moreover, the half-life in data set [2] worked out at 0.167 h.
For orientation: Kp means tissue or fluid exposure divided by exposure in the circulation. As to `Cc1ccc(-c2nnc(N[C@@H]3C[C@@H]4CC[C@H]3O4)c3cnccc23)c(O)c1` (single isomer, unassigned) [Compound 7A], it took 0.23 µM to reach half-maximal inhibition in data set [1] (IC50). This compound also returned a Kp at 24 h in data set [3] (setting [6]) of 0.61. In addition, the results for the half-life in data set [2] and in data set [4] were 0.95 h and above 8 h, respectively.
Regarding `Cc1ccc(-c2nnc(N[C@H]3C[C@@H]4CC[C@H]3O4)c3cnccc23)c(O)c1` (single isomer, unassigned) [Compound 7B], the IC50 in data set [1] was 5.3 µM.
In turn, `Cc1ccc(-c2nnc(N[C@H]3C[C@H]4CC[C@@H]3O4)c3cnccc23)c(O)c1` (single isomer, unassigned) [Compound 7D] displayed a concentration for half-maximal inhibition (IC50) in data set [1] of 4.66 µM.
In the case of `Oc1cc(Cl)ccc1-c1nnc(N[C@@H]2C[C@@H]3C[C@H]2CO3)c2cnccc12` (single isomer, unassigned) [Compound 8A], the IC50 in data set [1] came to 0.27 µM. Besides, in data set [2], the half-life came to 4.17 h.
Broadly, the kinetic solubility is solubility judged after dilution from a stock solution rather than from solid. The solubility is how much of the substance goes into solution per volume. Higher therefore signals a readily soluble substance. Regarding `Oc1cc(Cl)ccc1-c1nnc(N[C@H]2C[C@H]3C[C@@H]2CO3)c2cnccc12` (single isomer, unassigned) [Compound 8B], in data set [1], the half-inhibitory concentration (IC50) was found to be 0.59 µM. The compound further returned a Kp in data set [3] (setting [7]) of 0.35. Further, the Kpu,u in data set [3] (CDI, mouse, brain (whole brain homogenate) relative to plasma, po, 20 mg/kg, Kp corrected with mouse plasma protein binding and mouse brain homogenates binding, 20 mpk PO, read-out: Kpu,u) was 0.1; in data set [3] (brain levels, unbound, mice) it was “— 0.10”. In data set [3] (setting [6]), this compound registered a Kp at 24 h of 0.35. Further, the half-life in data set [2] amounted to 4.67 h. The solubility (kinetic) at 2 h in data set [5] (phosphate buffered saline (PBS), 18 °C, aqueous buffer, kinetic from dmso stock, kinetic solubility, PBS pH 7.4, 2 hours at room temperature) was above 300 µM. The solubility at 2 h in data set [5] (setting [8]) is above 300 µM.
For the compound `Oc1cc(Cl)ccc1-c1nnc(N[C@]23CCC(C2)OC3)c2cnccc12` (single isomer, unassigned) [Compound 9A], the concentration for half-maximal inhibition (IC50) in data set [1] is above 50 µM.
Still for that read-out and setting: next, `Oc1cc(Cl)ccc1-c1nnc(N[C@@]23CCC(C2)OC3)c2cnccc12` (single isomer, unassigned) [Compound 9B]: above 50 µM; `Oc1cc(C(F)(F)F)ccc1-c1nnc(N[C@H]2C[C@@H]3CC[C@H]2O3)c2cnccc12` (single isomer, unassigned) [Compound 10B*]: 6.76 µM.
Take `Oc1cc(C(F)(F)F)ccc1-c1nnc(N[C@H]2C[C@H]3CC[C@@H]2O3)c2cnccc12` (single isomer, unassigned) [Compound 10D*]: half-maximal inhibition in data set [1] (IC50) required 5.34 µM. Also, the half-life in data set [2] was 8 h; in data set [4], above 8 h.
In turn, `Oc1cc(Cl)ccc1-c1nnc(N[C@H]2C[C@H]3CC[C@@H](C2)O3)c2cnccc12` [Compound 1A*-r, 2-(4-(((1R,3r,5S)-8-oxabicyclo[3.2.1]octan-3-yl)amino)pyrido[3,4-d]pyridazin-1-yl)-5-chlorophenol] came in with a half-maximal inhibitory concentration (IC50) in data set [1] of 1.39 µM. The compound also displayed a Kp in data set [3] (setting [7]) of 0.047. The Kp at 24 h in data set [3] (setting [6]) was found to be 0.047. In data set [5] (kinetic solubility, PBS pH 7.4, 2 hours at room temperature), the “Sol (PBS)” value came to 3.5 µM. Further, the concentration in solution in data set [5] (setting [8]) (solubility at 2 h) came to 3.5 µM (≈ 1.34 µg/mL).
Consider `Cc1ccc(-c2nnc(N[C@@H]3C[C@H]4CC[C@@H](C3)O4)c3cnccc23)c(O)c1` [Compound 2B*-r, 2-(4-(((1R,3s,5S)-8-oxabicyclo[3.2.1]octan-3-yl)amino)pyrido[3,4-d]pyridazin-1-yl)-5-methylphenol], for which the half-maximal inhibitory concentration (IC50) in data set [1] is 4.12 µM. In data set [2], the half-life is 3.67 h.
The matching figures for `Cc1ccc(-c2nnc(N[C@H]3C[C@H]4CC[C@@H](C3)O4)c3cnccc23)c(O)c1F` [Compound 12A*-r, 6-(4-(((1R,3r,5S)-8-oxabicyclo[3.2.1]octan-3-yl)amino)pyrido[3,4-d]pyridazin-1-yl)-2-fluoro-3-methylphenol]: 2 µM and 3.33 h.
With `Cc1cc(O)c(-c2nnc(N[C@H]3[C@@H]4CC[C@H]3COC4)c3cnccc23)c(F)c1` [Compound 16A, 2-(4-(((1R,5S,8s)-3-oxabicyclo[3.2.1]octan-8-yl)amino)pyrido[3,4-d]pyridazin-1-yl)-3-fluoro-5-methylphenol], in data set [1], the 50% inhibitory concentration (IC50) stood at 0.48 µM.
Regarding `Cc1cc(C)c(-c2nnc(N[C@H]3[C@@H]4CC[C@H]3COC4)c3cnccc23)c(O)c1` [Compound 17A, 2-(4-(((1R,5S,8s)-3-oxabicyclo[3.2.1]octan-8-yl)amino)pyrido[3,4-d]pyridazin-1-yl)-3,5-dimethylphenol], in data set [1], half-maximal inhibition (IC50) was put at 0.31 µM.
In data set [1], `N#Cc1ccc(-c2nnc(N[C@H]3[C@@H]4CC[C@H]3COC4)c3cnccc23)c(O)c1` [Compound 18A, 4-(4-(((1R,5S,8s)-3-oxabicyclo[3.2.1]octan-8-yl)amino)pyrido[3,4-d]pyridazin-1-yl)-3-hydroxybenzonitrile] displayed an IC50 of 0.32 µM.
